Reference: patent publication US11179381B2, “Intranasal administration of physiologically active substances” (DUTCH RENEWABLE ENERGY B.V., priority 2017, dated 2021)

How the values were obtained:
[1] = octanol/water partition coefficient; stated without a test; cited from earlier work
[2] = Blood erythropoietin after intranasal rh-Erythropoietin (Access EPO immunoassay); format: in vivo, human; conditions: from average increases of Tables 9 and 10 (5 wt. % nicotinamide)
Description: As a control a composition comprising 400 μg rh-Erythropoietin was used.
An immunoassay (Access erythropoietin (EPO), Beckman Coultier Inc.) was used to quantify the erythropoietin. Briefly, testing was performed on the Beckman Coulter DxI 800 (Beckman Coulter Inc.). […] The light production is directly proportional to the concentration of EPO in the sample. The amount of analyte in the sample was determined from a stored, multi-point calibration curve. (Instruction manual: Beckman Coulter Access EPO, Beckman Coulter Access Immunoassay Systems, Beckman Coulter, Inc, Fullerton Calif. 2009).

[3] = Blood vitamin B12 after intranasal hydroxocobalmin, 75 μg dose (Access Vitamin B12 assay); conditions: from average increases of Tables 7 and 8 (75 μg dose, 5 wt. % nicotinamide)
[4] = Blood vitamin B12 after intranasal hydroxocobalmin, 500 μg dose (Access Vitamin B12 assay); conditions: from average increases of Tables 5 and 6 (500 μg dose, 5 wt. % nicotinamide)
[5] = Blood folate after intranasal spray (Access Folate immunoassay); format: in vivo, human; conditions: from average increases of Tables 3 and 4 (3.5 wt. % nicotinamide)
Description: Briefly, a serum specimen was treated to release folate from endogenous binding proteins. After neutralization of the reaction mixture, folate-binding protein, mouse antifolate-binding protein, folic acid-alkaline phosphatase conjugate, and goat antimouse capture antibody coupled to paramagnetic particles were added to the reaction vessel. Folate in the sample competes with the folic acid-alkaline phosphatase conjugate for binding sites on a limited amount of folate-binding protein. Resulting complexes bind to the solid phase via mouse antifolate binding protein. […] The instrument used is a Beckman Coulter DXI 800.

Erythropoietin: rh-Erythropoietin, molecular weight 34000
log P [1]: 0 | Increase in absorption relative to control (absence of nicotinamide) [2]: 300%

C/C1=C2/[N-][C@H]([C@H](CC(N)=O)[C@@]2(C)CCC(=O)NC[C@@H](C)OP(=O)([O-])O[C@H]2[C@@H](O)[C@@H](n3cnc4cc(C)c(C)cc43)O[C@@H]2CO)[C@]2(C)N=C(/C(C)=C3N=C(/C=C4N=C1[C@@H](CCC(N)=O)C\4(C)C)[C@@H](CCC(N)=O)[C@]\3(C)CC(N)=O)[C@@H](CCC(N)=O)[C@]2(C)CC(N)=O.[Co+3].[OH-] [Hydroxocobalamin, hydroxocobalamin]
log P [1]: −0.9 | Increase in absorption relative to control (absence of nicotinamide) [3]: 192% | Increase in absorption relative to control (absence of nicotinamide) [4]: 203%

Nc1nc2ncc(CNc3ccc(C(=O)N[C@@H](CCC(=O)O)C(=O)O)cc3)nc2c(=O)[nH]1 [Folic acid, folic acid]
log P [1]: −0.02 | Increase in absorption relative to control (absence of nicotinamide) [5]: 184%
